The record followed here is ChEMBL document CHEMBL1201862, “PubChem BioAssay data set” (2004).

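Where inhibition never reached the appropriate level, the endpoint shown equals the highest concentration tested. Otherwise, values were interpolated linearly from a five-concentration, 48-hour dose response in 96-well plates. GI50 marks 50% less growth.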 Activity calls are given as the source filed them. No stated cut-off is given here; in the data, active = GI50 up to about 1.1 µM and inactive = higher.

Among the test systems are COLO 205; DMS-114; HCC 2998; HL-60; HT-29; NCI-H226; OVCAR-3; OVCAR-8; SF-295; SK-MEL-5; SN12C; SNB-19; SNB-75; OVCAR-5; TK-10; HOP-92; MDA-MB-231; MDA-MB-435; PC-3; T47D.
Common to all, as to experiment: NCI-60 cell line screen, 48 h

As to `CCOC(=O)NC(=O)c1cn(CCCCCOC(=O)NCCCCCCNC(=O)OCCCCCn2cc(C(=O)NC(=O)OCC)c(=O)[nH]c2=O)c(=O)[nH]c1=O`, the GI50 in the experiment on COLO 205, with DMS-114, in the experiment on HCC 2998, in the experiment with HL-60, in the experiment with HT-29 and with NCI-H226 was > 100 µM (inactive) each time. For the same compound, the GI50 in the experiment with OVCAR-3, in the experiment on OVCAR-8, in the experiment with SF-295, in the experiment with SK-MEL-5, in the experiment with SN12C and in the experiment on SNB-19 was > 100 µM (inactive) in each case. The GI50 with SNB-75 was > 100 µM (inactive).
`CC(=O)c1ccc(NC(=O)C(=O)CC(=O)c2sc(-n3nc(-c4ccccc4)cc3-c3ccccc3)nc2C)cc1`: the GI50 with COLO 205, in the experiment on DMS-114, in the experiment with HCC 2998, in the experiment with HL-60, in the experiment on HT-29 and in the experiment with NCI-H226 was > 100 µM (inactive) in each case. The GI50 in the experiment with OVCAR-3, in the experiment on OVCAR-5, in the experiment on OVCAR-8, in the experiment with SF-295, in the experiment with SN12C and with SNB-19 was > 100 µM (inactive) throughout. Also, the GI50 with TK-10 was > 100 µM (inactive).
Regarding `Cc1nc2nn(Cc3ccccc3)cc2c(=O)o1`, the GI50 in the experiment with COLO 205, with DMS-114, in the experiment on HCC 2998, in the experiment on HL-60, with HT-29 and in the experiment with NCI-H226 was > 100 µM (inactive) each time. The GI50 in the experiment on OVCAR-3, in the experiment with OVCAR-5, in the experiment on OVCAR-8, with SF-295, in the experiment on SK-MEL-5 and with SN12C was > 100 µM (inactive) each time. The GI50 in the experiment with SNB-19, in the experiment on SNB-75 and in the experiment with TK-10 was > 100 µM (inactive) each time.
Turning to `O=[N+]([O-])c1cc([As](Br)c2ccc(O)c([N+](=O)[O-])c2)ccc1O`, the GI50 with COLO 205 was 1.26 µM (inactive); in the experiment on HCC 2998, 1.02 µM (active); in the experiment with HL-60 it was 1.17 µM (inactive); with HOP-92, 1.38 µM (inactive); with HT-29 it was 3.43 µM (inactive); with MDA-MB-231, 1.39 µM (inactive). Moreover, the GI50 is 1.78 µM (inactive) in the experiment on MDA-MB-435; 1.5 µM (inactive) in the experiment with NCI-H226; 1.81 µM (inactive) with OVCAR-3; 2.05 µM (inactive) in the experiment with OVCAR-5; 1.79 µM (inactive) in the experiment on OVCAR-8; 1.95 µM (inactive) in the experiment with PC-3. The GI50 in the experiment on SF-295 was 1.8 µM (inactive); in the experiment on SK-MEL-5, 1.49 µM (inactive); in the experiment with SN12C, 1.65 µM (inactive); in the experiment with SNB-19, 1.94 µM (inactive); with SNB-75 it was 1.93 µM (inactive); in the experiment with T47D, 0.204 µM (active). The GI50 with TK-10 is 1.58 µM (inactive).
For the compound `O=C1CNCCCN2CCN(CCCNCC(=O)Nc3ccc(cc3)S(=O)(=O)c3ccc(cc3)NC(=O)CNCCCN3CCN(CCCNCC(=O)Nc4ccc(cc4)S(=O)(=O)c4ccc(cc4)N1)CC3)CC2`, the GI50 with COLO 205 was 34.8 µM (inactive); with HCC 2998, 21.2 µM (inactive); with HL-60 it was 0.433 µM (active); in the experiment with HOP-92, 28.1 µM (inactive); in the experiment on HT-29, 27.2 µM (inactive); in the experiment on MDA-MB-231 it was 22.5 µM (inactive). Besides, the GI50 with MDA-MB-435 was 20.9 µM (inactive); with NCI-H226 it was > 47.1 µM (inactive); with OVCAR-3, 41.7 µM (inactive); with OVCAR-5, 31.4 µM (inactive); in the experiment on OVCAR-8, 24.8 µM (inactive); with PC-3, 42.3 µM (inactive). In addition, the GI50 in the experiment on SF-295 is 20.5 µM (inactive); with SK-MEL-5 it was 25.1 µM (inactive); in the experiment with SN12C, > 45.3 µM (inactive); with SNB-19, 52.2 µM (inactive); in the experiment with SNB-75 it was 37.2 µM (inactive); in the experiment on T47D, 27.9 µM (inactive). Moreover, the GI50 in the experiment on TK-10 is 20.8 µM (inactive).
Consider `Cc1cc(-c2nc3cc(F)ccc3s2)ccc1NC(=O)[C@@H](N)CCCCN`, for which the GI50 was 2.58 µM (inactive) with COLO 205; 0.735 µM (active) in the experiment with HCC 2998; 2.02 µM (inactive) in the experiment on HL-60; 13.4 µM (inactive) in the experiment with HOP-92; 2.82 µM (inactive) in the experiment with HT-29; 2.29 µM (inactive) in the experiment with MDA-MB-231. For the same compound, the GI50 was 1.79 µM (inactive) in the experiment with MDA-MB-435; 0.134 µM (active) in the experiment on NCI-H226; 6.11 µM (inactive) in the experiment on OVCAR-3; 0.119 µM (active) with OVCAR-5; 4.82 µM (inactive) with OVCAR-8; 8.05 µM (inactive) in the experiment with PC-3. Also, the GI50 is 2.65 µM (inactive) in the experiment on SF-295; 13.4 µM (inactive) in the experiment with SK-MEL-5; 13 µM (inactive) in the experiment on SN12C; 10.4 µM (inactive) in the experiment with SNB-19; 1.82 µM (inactive) in the experiment on SNB-75; < 0.0138 µM (active) with T47D. Also, the GI50 with TK-10 is < 0.0132 µM (active).
For the compound `CCSCCC(N)C(=O)O` (stereo not drawn), the GI50 with COLO 205, with HCC 2998, in the experiment on HL-60, in the experiment on HOP-92, in the experiment on HT-29 and in the experiment on MDA-MB-231 was > 100 µM (inactive) each time. Further, the GI50 with MDA-MB-435, with NCI-H226, with OVCAR-3, with OVCAR-5, with OVCAR-8 and with PC-3 was > 100 µM (inactive) throughout. Also, the GI50 in the experiment with SF-295, in the experiment with SK-MEL-5, with SN12C, in the experiment with SNB-19, in the experiment on SNB-75 and in the experiment with T47D was > 100 µM (inactive) in each case. For the same compound, the GI50 with TK-10 was > 100 µM (inactive).
For the compound `COc1cc2c(cc1-c1coc3cc(O)ccc3c1=O)OCO2` [CUNEATIN], the GI50 in the experiment with COLO 205 was > 100 µM (inactive); in the experiment with HCC 2998, 39.7 µM (inactive); in the experiment with HL-60 it was > 100 µM (inactive); in the experiment with HOP-92, 29 µM (inactive); in the experiment with HT-29, 99.3 µM (inactive); in the experiment with MDA-MB-231 it was > 10 µM (inactive). The GI50 is > 100 µM (inactive) in the experiment on MDA-MB-435; 20.3 µM (inactive) in the experiment on NCI-H226; 32.6 µM (inactive) in the experiment on OVCAR-3; 40.2 µM (inactive) in the experiment on OVCAR-5; 19.3 µM (inactive) in the experiment with OVCAR-8; 43 µM (inactive) in the experiment with PC-3. Besides, the GI50 with SF-295 was 20.4 µM (inactive); in the experiment on SK-MEL-5, 37.2 µM (inactive); in the experiment with SN12C, 25.4 µM (inactive); with SNB-19, 19.5 µM (inactive); in the experiment on SNB-75 it was 20.5 µM (inactive); in the experiment on T47D, 29.6 µM (inactive). Moreover, in the experiment with TK-10, the GI50 is 20.9 µM (inactive).
`COc1ccccc1/C=C\c1cnnc2ccccc12`: the GI50 in the experiment on COLO 205 was > 10 µM (inactive); in the experiment with HCC 2998, > 10 µM (inactive); in the experiment with HL-60, > 10 µM (inactive); in the experiment on HOP-92, 0.0372 µM (active); with HT-29, 3.77 µM (inactive); in the experiment with MDA-MB-231, > 10 µM (inactive). In addition, the GI50 in the experiment on MDA-MB-435 is 3.49 µM (inactive); in the experiment with NCI-H226 it was > 10 µM (inactive); in the experiment on OVCAR-3, > 10 µM (inactive); in the experiment on OVCAR-5, > 10 µM (inactive); in the experiment with OVCAR-8, > 10 µM (inactive); in the experiment on PC-3 it was > 10 µM (inactive). In addition, the GI50 in the experiment on SF-295 is > 10 µM (inactive); with SK-MEL-5, 6.71 µM (inactive); with SN12C, > 10 µM (inactive); with SNB-19, > 10 µM (inactive); with SNB-75, 9.02 µM (inactive); in the experiment on T47D, > 10 µM (inactive). Moreover, in the experiment on TK-10, the GI50 is > 10 µM (inactive).
In the case of `Nc1nc(=O)[nH]c2c1cnn2Cc1ccccc1`, the GI50 is > 100 µM (inactive) in the experiment on COLO 205; > 100 µM (inactive) in the experiment on DMS-114; > 100 µM (inactive) with HL-60; > 100 µM (inactive) in the experiment on HOP-92; > 100 µM (inactive) with HT-29; 1.41 µM (inactive) in the experiment with NCI-H226. In addition, the GI50 with OVCAR-5 was 1.47 µM (inactive); in the experiment on OVCAR-8, > 100 µM (inactive); in the experiment on SF-295 it was > 100 µM (inactive); in the experiment with SK-MEL-5 it was > 100 µM (inactive); in the experiment on SN12C, > 100 µM (inactive); in the experiment with SNB-19, > 100 µM (inactive). Moreover, the GI50 is > 100 µM (inactive) with SNB-75 and 1.35 µM (inactive) in the experiment with TK-10.
In the case of `COc1cc(S(=O)(=O)Nc2nc(-c3ccc(N4C(=O)C(CC(=O)O)SC4c4cccs4)cc3)cs2)ccc1Cl` (stereo not drawn), the GI50 with COLO 205 is > 100 µM (inactive); in the experiment on HCC 2998 it was 27 µM (inactive); with HL-60, 31 µM (inactive); with HOP-92, 30.9 µM (inactive); in the experiment with HT-29, > 100 µM (inactive); in the experiment with MDA-MB-231, 81.1 µM (inactive). Further, the GI50 with MDA-MB-435 was 40 µM (inactive); in the experiment on NCI-H226, > 100 µM (inactive); with OVCAR-3 it was 36.2 µM (inactive); with OVCAR-5, > 100 µM (inactive); in the experiment with OVCAR-8, 39 µM (inactive); in the experiment on PC-3, 49.1 µM (inactive). Also, the GI50 with SF-295 is > 100 µM (inactive); with SK-MEL-5 it was > 100 µM (inactive); with SN12C it was 30.3 µM (inactive); with SNB-19, 79.6 µM (inactive); in the experiment with SNB-75 it was 17.2 µM (inactive); in the experiment on T47D, 25.9 µM (inactive). For the same compound, the GI50 in the experiment on TK-10 was 79.4 µM (inactive).
